Earlier results in patent US11753409B2, “Crystalline salts of a B-RAF kinase inhibitor” (Xynomic Pharmaceuticals, Inc., priority 2017, dated 2023).

Assays:
[1] = test system: human B-RAF-mutant melanoma cells; conditions: cited from earlier work
[2] = treated mice; cited from earlier work
[3] = rats, up to 60 mg/kg daily for 2 weeks; cited from earlier work
[4] = test system: wild-type cells; conditions: at 1,000 nmol/L; cited from earlier work
[5] = test system: B-RAF-mutant melanomas and colorectal carcinomas; conditions: cited from earlier work
[6] = test system: A375 melanoma; conditions: particularly in combination with trametinib; cited from earlier work

CCCS(=O)(=O)Nc1ccc(F)c(-n2cc(-c3cncnc3)c3nc(N(C)C4CCN(CC)CC4)ccc32)c1F [BI 882370, N-(3-(5-((1-ethylpiperidin-4-yl)(methyl)amino)-3-(pyrimidin-5-yl)-1H-pyrrolo[3,2-b]pyridin-1-yl)-2,4-difluorophenyl)propane-1-sulfonamide]
Potency, inhibition of proliferation [1]: 1 to 10 nM
Potency relative to vemurafenib ([1]; higher potency than vemurafenib): 100 times
Body weight loss or clinical signs of intolerability [2]: did not show any body weight loss or clinical signs of intolerability
Pathologic changes in several major organs, including skin [2]: no pathologic changes were observed
Toxicity (clinical chemistry, hematology, pathology, toxicogenomics) [3]: lacked toxicity
Effect on wild-type cells [4]: not affected
Efficacy compared with vemurafenib, dabrafenib, or trametinib ([5]; 25 mg/kg twice daily, oral): superior efficacy
Efficacy in mouse models ([5]; solution administered orally): efficacious
Activity in vemurafenib-resistant model [6]: active
